In article PMC8815882, “Screening the pandemic response box identified benzimidazole carbamates, Olorofim and ravuconazole as promising drug candidates for the treatment of eumycetoma” (PLoS Neglected Tropical Diseases, 2022):
Like-named read-outs stand apart in the source and are kept apart here.

Tested on: M. mycetomatis genome strain MM55
Test: CLSI M38-A2 based in vitro susceptibility screening (XTT or resazurin), growth at fixed concentration
Format: cell-based, Madurella mycetomatis
Settings: Madurella mycetomatis; for Percent fungal survival at 100 µM: replicate 2, read-out: Percentage survival at 100um, 100 uM A (second replicate column)
[1] = 25 uM, mean of three replicates, read-out: Percentage survival at 25um, 25 uM mean
[2] = 25 uM, replicate A, read-out: Percentage survival at 25um, 25 um A
[3] = 25 uM, replicate B, read-out: Percentage survival at 25um, 25 uM B
[4] = 25 uM, replicate C, read-out: Percentage survival at 25um, 25 uM C
[5] = first replicate column, read-out: Percentage survival at 100um, 100 uM A
[6] = mean of three replicates, read-out: Percentage survival at 100um, 100 uM mean
[7] = second replicate column, read-out: Percentage survival at 100um, 100 uM A
[8] = third replicate column, read-out: Percentage survival at 100um, 100 uM A
[9] = 25 uM, mean of replicates, MM55, read-out: Percentage survival at 25um, 25 uM mean
[10] = 25 uM, replicate A, MM55, read-out: Percentage survival at 25um, 25 um A
[11] = 25 uM, replicate B, MM55, read-out: Percentage survival at 25um, 25 uM B
[12] = 25 uM, replicate C, MM55, read-out: Percentage survival at 25um, 25 uM C
[13] = mean of replicates, MM55, read-out: Percentage survival at 100um, 100 uM mean
[14] = replicate 1, MM55, read-out: Percentage survival at 100um, 100 uM A
[15] = replicate 2, MM55, read-out: Percentage survival at 100um, 100 uM A
[16] = replicate 3, MM55, read-out: Percentage survival at 100um, 100 uM A
[17] = replicate 1, read-out: Percentage survival at 100um, 100 uM A (first replicate column)
[18] = replicate 3, read-out: Percentage survival at 100um, 100 uM A (third replicate column)

COc1ccc(NS(=O)(=O)c2ccc(Cl)s2)cn1 [MMV1580499]
activity at 25 µM [1]: 85% | activity at 25 µM [2]: 77.6% | activity at 25 µM [3]: 91.2% | activity at 25 µM [4]: 86.3% | activity at 100 µM [5]: 64.6% | activity at 100 µM [6]: 61.8% | activity at 100 µM [7]: 69.9% | activity at 100 µM [8]: 50.9%

Cn1c2ccccc2c(=O)c2c(O)cccc21 [MMV1580500]
activity at 25 µM [9]: 65% | activity at 25 µM [10]: 63.1% | activity at 25 µM [11]: 67.8% | activity at 25 µM [12]: 64.2% | activity at 100 µM [13]: 58.6% | activity at 100 µM [14]: 66.8% | activity at 100 µM [15]: 57.2% | activity at 100 µM [16]: 51.8%

CC1(C)CC(NC(=O)C(=O)Nc2ccc(Cl)cc2)CC(C)(C)N1 [MMV1580501]
activity at 25 µM [9]: 79.5% | activity at 25 µM [10]: 75.9% | activity at 25 µM [11]: 89.4% | activity at 25 µM [12]: 73.3% | activity at 100 µM [13]: 74.7% | activity at 100 µM [14]: 76.9% | activity at 100 µM [15]: 78.1% | activity at 100 µM [16]: 69%

c1cc(CN2CCCNCCNCCCNCC2)ccc1CN1CCCNCCNCCCNCC1 [MMV1580502]
activity at 25 µM [9]: 91.1% | activity at 25 µM [10]: 89% | activity at 25 µM [11]: 97.4% | activity at 25 µM [12]: 86.9% | activity at 100 µM [13]: 83.6% | activity at 100 µM [14]: 86.9% | activity at 100 µM [15]: 83.7% | activity at 100 µM [16]: 80.2%

CC(=O)N1c2ccccc2NC2=C(C(=O)CC(C)(C)C2)C1c1ccc(OCc2ccccc2)cc1 (centres unmarked) [MMV1580503]
activity at 25 µM [1]: 100% | activity at 25 µM [2]: 99.4% | activity at 25 µM [3]: 107% | activity at 25 µM [4]: 94.6% | activity at 100 µM [5]: 99.3% | activity at 100 µM [6]: 97.8% | activity at 100 µM [7]: 113% | activity at 100 µM [8]: 80.9%

Oc1ccc(NCc2ccccc2OCc2ccccc2)cc1 [MMV1580504]
activity at 25 µM [1]: 81.4% | activity at 25 µM [2]: 86.2% | activity at 25 µM [3]: 84.4% | activity at 25 µM [4]: 73.7% | activity at 100 µM [6]: 8.06% | activity at 100 µM [17]: 2.17% | Percent fungal survival at 100 µM: 4.7% | activity at 100 µM [18]: 17.3%

O=C(Nc1ccc(N2CCN(C(=O)c3ccccc3)CC2)cc1)c1ccc2c(c1)OCO2 [MMV1580505]
activity at 25 µM [9]: 104% | activity at 25 µM [10]: 103% | activity at 25 µM [11]: 109% | activity at 25 µM [12]: 101% | activity at 100 µM [13]: 96.7% | activity at 100 µM [14]: 102% | activity at 100 µM [15]: 96.8% | activity at 100 µM [16]: 91.4%

C[C@H](NC(=O)C(=O)Nc1ccccc1C(C)(C)C)C(=O)N[C@@H](CC(=O)O)C(=O)COc1c(F)c(F)cc(F)c1F [MMV1580794]
activity at 25 µM [1]: 43.5% | activity at 25 µM [2]: 71.1% | activity at 25 µM [3]: -10.5% | activity at 25 µM [4]: 70% | activity at 100 µM [6]: 70.9% | activity at 100 µM [17]: 64.2% | Percent fungal survival at 100 µM: 60.7% | activity at 100 µM [18]: 87.8%

CC[C@@]1(O)C(=O)OCc2c1cc1n(c2=O)Cc2cc3c([N+](=O)[O-])cccc3nc2-1 [MMV1580796]
activity at 25 µM [10]: 95.3% | activity at 100 µM [13]: 86.8% | activity at 100 µM [14]: 97.1% | activity at 100 µM [15]: 84.7% | activity at 100 µM [16]: 78.6% | activity at 25 µM (read-out: Percentage survival at 25um, 25 uM B): 102% | activity at 25 µM (read-out: Percentage survival at 25um, 25 uM C): 81.7% | activity at 25 µM (read-out: Percentage survival at 25um, 25 uM mean): 93.1%

OCCC#Cc1nc(-c2ccc(F)cc2)c(-c2ccncc2)n1CCCc1ccccc1 [MMV1580797]
activity at 25 µM [1]: 67.7% | activity at 25 µM [2]: 62% | activity at 25 µM [3]: 74.7% | activity at 25 µM [4]: 66.4% | activity at 100 µM [5]: 53.2% | activity at 100 µM [6]: 57.6% | activity at 100 µM [7]: 58.3% | activity at 100 µM [8]: 61.4%
